# Measured values as given in US5707815A, “Mammalian monocyte chemoattractant protein receptors and assays using them” (Regents of the University of California, priority 1995, dated 1998).
# Columns and labels:
# [1] = tested on: MCP-1 receptor; assay: Total inositol phosphate accumulation in MCP-1 receptor transfected 293 cells; assay type: cell-based, human; conditions: 293 cells stably expressing recombinant MCP-1 receptor
# Experimental: Inositol (1,4,5)-triphosphate (IP3) mobilizes intracellular calcium in response to activation of a wide spectrum of receptors, including many seven-transmembrane-domain receptors. Hung, J. Ceil. Biol. 116:827-32 (1992); Putney, Trends Endocrinol. Metab. 5:256-60 (1994). To investigate this mobilization, total inositol phosphate accumulation was determined as described in Hung, J. Cell Biol. 116:827-32 (1992). HEK-293 cells were grown until confluent in 24-well tissue culture dishes and labeled overnight with 2 uCi/ml [^3 H]myo-inositol (23 Ci/mmol) (New England Nuclear, Boston, Mass.) in inositol-free MEM-EBSS supplemented with 10% dialyzed FCS. Following labeling, the media were removed and the cells were incubated at room temperature for 5-10 min in 0.5 ml of serum-free MEM-EBSS media supplemented with 10 mM HEPES, 1 mg/ml BSA, and 10 mM LiCl. […] The incubation was terminated by removal of the incubation media and addition of 1 ml of ice-cold 20 mM formic acid. Plates were incubated at 4° C. for 30 min before the supernatants were applied to 1-ml Dowex AG1-X8 (100-200 mesh, formate form, from Sigma) chromatography columns. Columns were washed with 8 ml of water followed by 5 ml of 40 mM sodium formate. Total [^3 H]inositol phosphates were eluted with 5 ml of 2M ammonium formate/0.1M formic acid and quantitated by liquid scintillation spectroscopy. […]
# [2] = tested on: MCP-1RB receptor; assay type: cell-based, human
# Experimental: To investigate inhibition of adenylyl cyclase activity, HEK-293 cells stably-transfected with the MCP-1RB receptor and the MIP-1α/RANTES receptor were grown until confluent in 24-well tissue culture dishes and labeled overnight with 2 μCi/ml of [^3 H]adenine (25-30 Ci/mmol) (New England Nuclear, Boston, Mass.) in MEM-EBSS supplemented with 10% FCS. The next day, the cells were washed by incubation at room temperature with 0.5 ml of serum-free MEM-EBSS media supplemented with 10 mM HEPES, 1 mg/ml BSA, and 1 mM IBMX (3-isobutyl-1-methylxanthine) for 5 min. […] The incubation was terminated by replacement of the media with 1 ml of ice-cold 5% TCA (trichloroacetic acid), 1 mM cAMP, and 1 mM ATP (Sigma). Following incubation at 4° C. for 30 min, the labeled [^3 H]ATP and [3H]cAMP pools were separated and quantitated by chromatography on Dowex 50W (200-400 mesh, hydrogen form, from Sigma) and neutral alumina columns (also from Sigma), as described in Hung, J. Biol. Chem. 267:20831-34 (1992) and Wong, Nature 351: 63-65 (1991). The 1 ml acid supernatant was loaded onto a 1-ml Dowex 50W column and the ATP pool eluted with 3 ml of H2 O. The Dowex 50W columns were then placed over 1-ml alumina columns, and 10 ml of H2 O was added to the Dowex resin and the eluant allowed to drop directly onto the neutral alumina. The cAMP pool was then eluted directly from the alumina with 5 ml of 0.1M imidazole/0.01mM sodium azide. The [^3 H]ATP and [^3 H]cAMP fractions were counted by liquid scintillation spectroscopy. The cAMP pool for each sample was normalized to its own ATP pool and expressed as a ratio by the equation (cAMP cpms/ATP cpms)×100. In each experiment full dose-response curves were generated and expressed as a percent of the forskolin control.
# Inhibition of MCP-1RB receptor activation by bordetella pertussis toxin was investigated. Pertussis toxin (List Biological Labs, Inc., Campbell, Calif.) was dissolved in 0.01M sodium phosphate, pH 7.0, 0.05M sodium chloride and diluted into normal serum containing media at final concentrations of 0.1 ng/ml to 100 ng/ml, and incubated with cells overnight (14-16 h) at 37° C. The conditions of the Pertussis toxin treatment of the 293 cells were identical for calcium fluorimetric and adenylyl cyclase experiments. In the adenylyl cyclase experiments, the Pertussis toxin was added at the same time as [^3 H]adenine.
# Dose response curves generated in the calcium fluorimetric and adenylyl cyclase inhibition assays were fit by a nonlinear least squares program to the logistic equation:
# Effect=max effect/[1+(EC50 /(agonist)^n)]
# where n and EC50 represent the Hill coefficient and the agonist concentration that elicited a half-maximal response, respectively, and were derived from the fitted curve. Curve fitting was done with the computer program "Prism" (by Graph Pad, San Diego, Calif.). Results represent the mean ±SE. The 95% confidence intervals (CI) of the EC50 and IC50 values, when given, were calculated from the log EC50 and IC50 values, respectively.
substance,measurement,setting,value
monocyte chemoattractant protein-1 [MCP-1],hydrolysis of PI (phosphatidylinositol),[1],"little, if any"
same,selectivity for the MCP-1 receptor,[2],at least 9000 fold
same,block of forskolin-induced increase of cAMP,[2]; co-addition with forskolin,78%
same,reduction of basal cAMP accumulation,"[2]; no forskolin, p<0.01",55%
